Columns and labels:
[1] = tested on: WT strain of Nannochloropsis oculata NIES-2145; format: cell-based; design: key to viability, WT strain: −: Not grown; +: Suppressed in growth, (somewhat) dye fading; ++: Suppressed in growth; +++: Fully grown
[2] = tested on: ΔNRT strain (NRT gene-disrupted strain); format: cell-based, Nannochloropsis oculata; design: key to viability, ΔNRT strain: −: Not grown; +: Suppressed in growth, (somewhat) dye fading; ++: Suppressed in growth; +++: Fully grown
[3] = tested on: ΔNRTΔNR strain (NRT-NR gene-disrupted strain); format: cell-based, Nannochloropsis oculata; design: key to viability, ΔNRTΔNR strain: −: Not grown; +: Suppressed in growth, (somewhat) dye fading; ++: Suppressed in growth; +++: Fully grown
[4] = tested on: ΔNR strain (NR gene-disrupted strain); format: cell-based, Nannochloropsis oculata; design: key to viability, ΔNR strain: −: Not grown; +: Suppressed in growth, (somewhat) dye fading; ++: Suppressed in growth; +++: Fully grown

[K+].[O-][Cl+2]([O-])[O-] [KClO3, potassium chlorate]
growth of WT strain on chloric acid-containing agar medium (FIG. 7) [1]: killed
viability, WT strain [1]: −
growth of ΔNRT strain (Table 2) [2]: growth was confirmed
growth of ΔNRT strain on chloric acid-containing agar medium (FIG. 7) [2]: growth was also confirmed
viability, ΔNRT strain [2]: − and ++
growth of ΔNRTΔNR strain (Table 2) [3]: growth was able to be achieved
growth of ΔNRTΔNR strain on chloric acid-containing agar medium (FIG. 7) [3]: more favorable growth was observed
viability, ΔNRTΔNR strain [3]: + and +++ and ++
growth of ΔNR strain on chloric acid-containing agar medium (FIG. 7) [4]: growth was unable to be confirmed
viability, ΔNR strain [4]: −
